Earlier results as cited in the PKSmart pharmacokinetics tables (Seal et al. 2025).

Assay: Lombardo, Berellini, Obach 2018, Drug Metab Dispos 46:1466, doi 10.1124/dmd.118.082966
Conditions: human; for MRT / Vd / clearance / half-life: in vivo, iv; for fraction unbound: plasma

Structure (SMILES) | MRT [h] | Vd [L/kg] | clearance [mL/min/kg] | half-life [h] | fraction unbound
C[C@H]1COc2c(N3CCN(C)CC3)c(F)cc3c(=O)c(C(=O)O)cn1c23 | 11 | 1.2 | 1.9 | 8.8 | 
COc1cccc(OCCCN)c1-c1cc(Nc2cnc(C#N)cn2)n[nH]1 | 11.2 | 22.8 | 34 | 12.5 | 
NC(=O)c1cc[n+](CC2=C(C(=O)O)N3C(=O)C(NC(=O)C(c4ccccc4)S(=O)(=O)[O-])[C@H]3SC2)cc1 (stereo not given in full) | 2.47 | 0.29 | 1.96 | 1.64 | 
CC[C@@]1(O)C(=O)OCc2c1cc1n(c2=O)Cc2c-1nc1cc3c(cc1c2CN1CCN(C)CC1)OCCO3 | 3.5 | 4.77 | 25.1 | 3.54 | 
CN[C@@H]1[C@H](O)[C@H](NC)[C@H]2O[C@@]3(O)C(=O)C[C@@H](C)O[C@H]3O[C@@H]2[C@H]1O | 2.2 | 0.13 | 0.99 | 1.8 | 
CCCCNC(=N)NC(=N)N | 4.66 | 1.84 | 6.58 | 4.62 | 
O=C1c2c(c3c4ccc(O)cc4n([C@@H]4O[C@H](CO)[C@@H](O)[C@H](O)[C@H]4O)c3c3[nH]c4cc(O)ccc4c23)C(=O)N1NC(CO)CO | 0.95 | 1.45 | 25.3 | 4.01 | 
O=C1NC(=O)C(c2ccccc2)(c2ccccc2)N1 | 17.6 | 0.43 | 0.37 | 16.8 | 0.13
C[C@@H](O[C@H]1OCCN(Cc2nc(=O)n(P(=O)(O)O)[nH]2)[C@H]1c1ccc(F)cc1)c1cc(C(F)(F)F)cc(C(F)(F)F)c1 | 0.06 | 0.07 | 18.6 | 2.2 | 0.02
Cc1nc(C#Cc2ccnc(Cl)c2)c(C)n1-c1ccc(F)cc1 | 57.4 | 9.7 | 2.8 | 78.9 | 0.01
CN(C)N=Nc1nc[nH]c1C(N)=O | 7.8 | 1.2 | 2.6 | 6.2 | 1
COc1cc(Cc2cnc(N)nc2N)c2cc(Cc3c(C(=O)N(C)C)[nH]c4ccc(Cl)cc34)oc2c1OC | 11.3 | 5.06 | 7.49 | 44.5 | 
O=C(O)C(O)Cc1ccc(O)c(O)c1 (stereo not given) | 0.53 | 0.38 | 17.8 | 0.37 | 
COc1ccc2cc1Oc1ccc(cc1)C[C@H]1c3cc(c(OC)cc3CCN1C)Oc1c(OC)c(OC)c(Br)c3c1[C@H](C2)N(C)CC3 | 88.2 | 51 | 9.6 | 59.4 | 0.22
CN[C@@H]1[C@@H](O)[C@@H](O[C@@H]2[C@@H](O)[C@H](O[C@H]3O[C@H](CN)[C@@H](O)[C@H](O)[C@H]3O)[C@@H](N)C[C@H]2NC(=O)C(O)CN)OC[C@]1(C)O (stereo not given in full) | 4.1 |  | 1.3 | 24 | 0.95
Cc1c(F)cc(C(=O)NC2CC2)cc1-c1ccc(C(=O)NCC(C)(C)C)cn1 | 7.38 | 1.67 |  | 6.95 | 
CN1CCN2c3ncccc3Cc3ccccc3C2C1 (stereo not given) | 8.8 | 4.2 | 8 |  | 
CN(C)CCn1nnnc1SCC1=C(C(=O)O)N2C(=O)C(NC(=O)Cc3csc(N)n3)[C@H]2SC1 (stereo not given in full) | 0.76 | 0.26 | 5.8 | 0.84 | 0.5
CC[C@@]1(O)C[C@H](O[C@@H]2C[C@H](N3CCOCC3)[C@H](O)[C@H](C)O2)c2c(O)c3c(c(O)c2[C@H]1O)C(=O)c1cccc(O)c1C3=O | 8 | 20.9 | 42.8 | 10.7 | 0.09
O=c1[nH]c(O)cn1/N=C/c1ccc(-c2ccc([N+](=O)[O-])cc2)o1 | 14 | 0.37 | 0.43 | 10 | 
C[C@@]1(Cn2ccnn2)C(C(=O)O)N2C(=O)C[C@H]2S1(=O)=O (stereo not given in full) | 0.89 | 0.26 | 4.81 | 0.97 | 0.7
CCN1CCN(C(=O)NC(C(=O)N[C@]2(OC)C(=O)N3C(C(=O)O)=C(CSc4nnnn4C)CS[C@@H]32)[C@H](C)O)C(=O)C1=O (stereo not given in full) | 2.9 | 0.19 | 1.1 | 1.9 | 
C=C(CC)C(=O)c1ccc(OCC(=O)O)c(Cl)c1Cl | 0.5 | 0.26 | 8.7 | 0.5 | 
CC(C(=O)O)c1ccc(N2Cc3ccccc3C2=O)cc1 (stereo not given) | 2.7 | 0.12 | 0.65 | 2.11 | 0.01

Structure (SMILES) | MRT [h] | Vd [L/kg] | clearance [mL/min/kg] | half-life [h] | fraction unbound
O=C(CCCN1CCC(n2c(=O)[nH]c3ccccc32)CC1)c1ccc(F)cc1 | 7.5 | 3.8 | 8.3 | 5.8 | 
c1ccc(C2(c3ccccc3)CC2C2=NCCN2)cc1 (stereo not given) | 7.8 | 4.1 | 8.6 | 7.3 | 
C[N+]1(CC2CC2)[C@@H]2C[C@@H](OC(=O)C(CO)c3ccccc3)C[C@H]1[C@@H]1O[C@@H]12 (stereo not given in full) | 0.74 | 1.12 | 25 | 0.83 | 
Cc1ncc([N+](=O)[O-])n1CC(O)CN1CCOCC1 (stereo not given) | 7.9 | 0.75 | 1.6 | 6.2 | 
CN[C@@H]1C[C@H]2OC(C)([C@@H]1OC)n1c3ccccc3c3c4c(c5c6ccccc6n2c5c31)C(=O)N[C@@H]4O | 680 | 0.15 | 0.0037 | 790 | 0.0022
CC(C)(C)[N+](O)=Cc1ccc(S(=O)(=O)O)cc1S(=O)(=O)[O-] | 2.2 | 0.18 | 1.35 | 3.6 | 0.6
COc1cc2c(cc1OC)CN(CCc1ccc(NC(=O)c3cc(OC)c(OC)cc3NC(=O)c3cnc4ccccc4c3)cc1)CC2 | 38 | 6.4 | 2.8 | 29 | 
COC[C@@H](O)CN(C(C)=O)c1c(I)c(C(=O)NC[C@H](O)CO)c(I)c(C(=O)NC[C@H](O)CO)c1I | 2.64 | 0.2 | 1.27 | 2.04 | 1
N#Cc1ccccc1-c1cc(-c2ccccn2)cn(-c2ccccc2)c1=O | 229 | 1.36 | 0.1 | 183 | 0.05
CN(C)CCCOc1nn(Cc2ccccc2)c2ccccc12 | 11.4 | 1.53 | 2.28 | 8.1 | 0.8
Cc1[nH]c2ccccc2c1CCNCc1ccc(/C=C/C(O)=NO)cc1 |  |  | 10.2 | 13.1 | 0.1
CC#CCn1c(N2CCC[C@@H](N)C2)nc2c1c(=O)n(Cc1nc(C)c3ccccc3n1)c(=O)n2C | 140 | 16 | 1.9 | 129 | 
C[C@H]1O[C@@H](O[C@H]2[C@@H](O)C[C@H](O[C@H]3[C@@H](O)C[C@H](O[C@H]4CC[C@@]5(C)[C@H](CC[C@@H]6[C@@H]5C[C@@H](O)[C@]5(C)[C@@H](C7=CC(=O)OC7)CC[C@]65O)C4)O[C@@H]3C)O[C@@H]2C)C[C@H](O)[C@@H]1O | 40 | 4.1 | 1.7 | 38 | 
CCCCCCC(C)(C)c1cc(O)c2c(c1)OC(C)(C)[C@H]1CC=C(CO)C[C@H]21 | 3.94 | 5.06 | 21.4 | 7.33 | 
CNC(=O)c1ccccc1Sc1ccc2c(/C=C/c3ccccn3)n[nH]c2c1 |  |  | 5 | 4.3 | 0.004
CC1(C)S[C@@H]2C(NC(=O)Cc3ccccc3)C(=O)N2C1C(=O)O (stereo not given in full) | 0.58 | 0.24 | 6.9 | 0.7 | 0.4
O=C(O)Cn1c(=O)c(=O)[nH]c2cc([N+](=O)[O-])c(-n3ccnc3)cc21 | 0.6 | 0.19 | 5.3 | 0.78 | 
N=C(N)NCCCC(NC(=O)C1CCCN1C(=O)C1CSSCCC(=O)NC(Cc2ccc(O)cc2)C(=O)NC(Cc2ccccc2)C(=O)NC(CCC(N)=O)C(=O)NC(CC(N)=O)C(=O)N1)C(=O)NCC(N)=O (stereo not given) | 3.6 | 0.3 | 1.4 | 3 | 
FC(F)(F)C(F)(F)C(F)(F)F | 0.05 | 1.6 | 591 | 0.02 | 
CN1CCN(C(=O)OC2c3nccnc3C(=O)N2c2ccc(Cl)cn2)CC1 (stereo not given) | 6.6 | 1.3 | 3.3 | 5.2 | 
C=C(Br)C(=O)Nc1cc(C(=O)Nc2cc(C(=O)Nc3cc(C(=O)Nc4cc(C(=O)NCCN=C(N)N)n(C)c4)n(C)c3)n(C)c2)n(C)c1 | 1.2 | 0.36 | 5.15 | 8.3 | 
CN(C)Cc1nnc2n1-c1ccc(Cl)cc1C(c1ccccc1)=NC2 | 2.6 | 0.98 | 6.2 | 2.1 | 
CC(=O)O[C@H]1C[C@@H]2CC[C@@H]3[C@H](CC[C@@]4(C)[C@H]3C[C@H]([N+]3(C)CCCCC3)[C@@H]4OC(C)=O)[C@@]2(C)C[C@@H]1N1CCCCC1 | 1.1 | 0.3 | 4.5 | 1.4 | 0.25
